The results in this text go back to patent publication US20210255193A1, “LYSINE REACTIVE PROBES AND USES THEREOF” (The Scripps Research Institute, priority 2017, published 2021).

Holding throughout (assay): competitive isoTOP-ABPP
Holding throughout (type): binding

One test concerns the target T1, PLIN3 Perilipin-3 (Homo sapiens, UniProt O60664).
T1 construct: isoTOP-ABPP experiments performed in cell lysates (in vitro); endogenous in cells; host or cells: MDA-MB-231 soluble lysate
T1 sequence (O60664 1-434): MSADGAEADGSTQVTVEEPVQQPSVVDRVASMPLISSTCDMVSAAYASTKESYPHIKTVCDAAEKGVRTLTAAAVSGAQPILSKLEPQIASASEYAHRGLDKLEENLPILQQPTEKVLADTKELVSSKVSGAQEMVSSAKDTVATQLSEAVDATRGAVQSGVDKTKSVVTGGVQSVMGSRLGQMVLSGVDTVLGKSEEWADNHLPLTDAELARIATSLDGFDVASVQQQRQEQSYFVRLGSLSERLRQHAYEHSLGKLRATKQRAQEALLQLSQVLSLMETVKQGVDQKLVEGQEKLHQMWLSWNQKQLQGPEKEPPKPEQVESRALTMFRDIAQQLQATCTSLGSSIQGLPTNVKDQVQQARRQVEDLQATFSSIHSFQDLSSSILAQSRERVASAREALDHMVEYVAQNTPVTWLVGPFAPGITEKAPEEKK
As to the method: (§1) In vitro covalent fragment treatment for isoTOP-ABPP. All compounds were made up as solutions in DMSO (100×) and were used at a final concentration of 50 μM for activated esters and 100 μM for guanidinylating agents. For each profiling sample, 0.5 ml of lysate was treated with 5 μl of the 100× compound stock solution or 5 μl of DMSO. Samples were treated with activated esters for
(§2) STP-alkyne labeling and click chemistry. For concentration-dependent reactivity measurements by isoTOP-ABPP, 0.5 ml proteome aliquots were treated at ambient temperature with 1 mM STP-alkyne 1 (5 μl of 100 mM stock in DMSO) and 0.1 mM STP alkyne 1 (5 μl of 10 mM stock in DMSO), respectively. For competitive isoTOP-ABPP, after in vitro fragment treatment (detailed above), the samples were labeled for 1 h at ambient temperature with 0.1 mM STP-alkyne 1 (5 μl of 10 mM stock in DMSO). Samples were conjugated by copper-mediated azide-alkyne cycloaddition (CuAAC) to either the light (1 mM STP-alkyne or fragment treated) or heavy (0.1 mM STP-alkyne or DMSO treated) TEV tags (10 μl of 5 mM stocks in DMSO, final concentration=100 μM) using tris(2-carboxyethyl)phosphine hydrochloride
(§3) R value calculation and processing. The ratios of light and heavy MS1 peaks for each unique peptide were quantified with a CIMAGE software using default parameters (3 MS1 acquisitions per peak and signal to noise threshold set to 2.5). For reactivity measurements by isoTOP-ABPP, the R value was calculated from the ratio of MS1 peak areas, comparing the 1 mM STP alkyne sample (light TEV tag) with the 0.1 mM STP alkyne sample (heavy TEV tag). For competitive isoTOP-ABPP, the R value was calculated from the ratio of MS1 peak areas, comparing the DMSO treated sample (heavy TEV tag) with the compound treated sample (light TEV tag). […] Ratios for unique peptide entries are calculated for each experiment; overlapping peptides with the same modified lysine (for example, different charge states, MudPIT chromatographic steps or tryptic termini) are grouped together and the median ratio is reported as the final ratio (R). The peptide ratios reported by CIMAGE were further filtered to ensure the removal or correction of low-quality ratios in each individual data set. The quality filters applied were the following: removal of half tryptic peptides; for ratios with high standard deviations from the median (90% of the median or above) the lowest ratio was taken instead of the median; removal of peptides with R=20 and only a single MS2 event triggered during the elution of the parent ion; manual annotation of all the peptides with ratios of 20, removing any peptides with low quality elution profiles that remained after the previous curation steps (only done for competitive isoTOP-ABPP).
(§4) Cross-data processing for fragment screening. For compound treated samples, biological replicates of the same condition were averaged, if the standard deviation was below 60% of the mean; otherwise, for lysines with at least one R value <4 for a particular compound, the lowest value of the ratio set was taken. For lysines, where all R values for a particular compound were ≥4, the average was reported. For peptides containing several possible modified lysines, the lysine with the highest number of quantification events was used for analysis and the remaining, redundant peptides were reported as alternative modification sites. Peptides included in the aggregate dataset (those used for further bioinformatics and statistical analyses) were required to have been quantified in 2 experiments for competitive isoTOP-ABPP. Lysines were categorized as liganded, if they had at least one ratio R≥4 (hit fragments). For liganded lysines with R=20 for all liganding events, lysines were required to have been quantified with R=20 in two separate experiments and were further required to have been quantified with R<20 in one additional experiment.

Test [1] addresses T2, ECH1 Delta(3,5)-Delta(2,4)-dienoyl-CoA isomerase, mitochondrial (Homo sapiens, UniProt Q13011).
T2 construct: isoTOP-ABPP experiments performed in cell lysates (in vitro); endogenous in cells; host or cells: soluble proteome of human cancer cell lines (MDA-MB-231, Ramos, Jurkat)
T2 sequence (Q13011 34-328): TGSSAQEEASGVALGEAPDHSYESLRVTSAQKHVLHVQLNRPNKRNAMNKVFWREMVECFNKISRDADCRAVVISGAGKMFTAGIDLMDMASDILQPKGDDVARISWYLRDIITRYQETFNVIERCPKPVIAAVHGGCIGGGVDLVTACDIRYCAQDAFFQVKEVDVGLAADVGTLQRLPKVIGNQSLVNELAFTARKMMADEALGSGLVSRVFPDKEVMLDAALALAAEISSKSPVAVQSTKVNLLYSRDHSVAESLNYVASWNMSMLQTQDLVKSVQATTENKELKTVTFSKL
On the procedure: as §1, §2, §3, §4

Test [2] addresses T3, ISOC2 Isochorismatase domain-containing protein 2, mitochondrial (Homo sapiens, UniProt Q96AB3).
T3 construct: isoTOP-ABPP experiments performed in cell lysates (in vitro); endogenous in cells; host or cells: soluble proteome of human cancer cell lines (MDA-MB-231; Ramos and Jurkat also prepared)
T3 sequence (Q96AB3 1-205): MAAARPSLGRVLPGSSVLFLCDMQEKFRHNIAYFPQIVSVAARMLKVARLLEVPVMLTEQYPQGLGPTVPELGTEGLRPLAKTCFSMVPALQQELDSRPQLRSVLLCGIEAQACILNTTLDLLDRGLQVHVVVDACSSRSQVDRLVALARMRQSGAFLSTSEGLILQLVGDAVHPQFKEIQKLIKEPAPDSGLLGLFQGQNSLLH
On the procedure:
as §1, §2, §3, §4

As to `O=C(Oc1c(F)c(F)cc(F)c1F)c1cc(C(F)(F)F)cc(C(F)(F)F)c1` [fragment 48, 2,3,5,6-Tetrafluorophenyl 3,5-bis(trifluoromethyl)benzoate], the “isoTOP-ABPP ratio, lysine O60664_K140” value at PLIN3 Perilipin-3 (50 uM_231_sol_in vitro) came out at 1.3. In addition, the “isoTOP-ABPP ratio, lysine Q13011_K112” value in test [1] (50 uM_231_sol_in vitro) was 1.5. Also, the “isoTOP-ABPP ratio, lysine Q96AB3_K178” value in test [2] (50 uM_231_sol_in vitro) stood at 0.9.

As for `COC(=O)NC(=NC(=O)OCC1c2ccccc2-c2ccccc21)n1cccn1` [fragment 49, N-Methoxycarbonyl-N′-9-fluorenylmethoxycarbonyl-pyrazole-1-carboxamidine], the “isoTOP-ABPP ratio, lysine O60664_K140” value at PLIN3 Perilipin-3 (100 uM_231_sol_in vitro) was found to be 3.0. For the same compound, the “isoTOP-ABPP ratio, lysine Q13011_K112” value in test [1] (100 uM_231_sol_in vitro) is listed as 1.1. Also, the “isoTOP-ABPP ratio, lysine Q96AB3_K178” value in test [2] (100 uM_231_sol_in vitro) is given as 1.1.

Regarding `CC(C)(C)OC(=O)N=C(NC(=O)OC(C)(C)C)n1cccn1` [fragment 50, reference compound], the “isoTOP-ABPP ratio, lysine O60664_K140” value at PLIN3 Perilipin-3 (100 uM_231_sol_in vitro) is 1.8. In test [1] (100 uM_231_sol_in vitro), the “isoTOP-ABPP ratio, lysine Q13011_K112” value is 1.3. Besides, the “isoTOP-ABPP ratio, lysine Q96AB3_K178” value in test [2] (100 uM_231_sol_in vitro) was 1.1.

For the compound `NC(=O)c1cc(C(F)(F)F)cc(C(F)(F)F)c1` [fragment 51, reference compound], at PLIN3 Perilipin-3 (50 uM_231_sol_in vitro), the “isoTOP-ABPP ratio, lysine O60664_K257” value worked out at 1.0. Moreover, the “isoTOP-ABPP ratio, lysine Q13011_K112” value in test [1] (50 uM_231_sol_in vitro) is on record as 1.0. For the same compound, in test [2] (50 uM_231_sol_in vitro), the “isoTOP-ABPP ratio, lysine Q96AB3_K178” value came out at 0.9.
